Reference: patent publication US6403117B1, “Archaesomes, archaeosomes containing coenzyme Q10 and other types of liposomes containing coenzyme Q10 adjuvants and as delivery vehicles” (National Research Council of Canada, priority 1995, dated 2002)

Tested on: bovine serum albumin (BSA) antigen
Assay: Immunization, humoral response by ELISA
Type: in vivo, mice
Details: for Antibody titres (A410 nm): 12.5 μg BSA i.p. at days 0 and 14, sera diluted by a factor of 400
Procedure: For in vivo studies with archaeosomes (prepared from the TPL, or a lipid obtained in a biologically pure form from the indicated archaeobacterium) and conventional liposomes (prepared from DMPC:DMPG at 1.8:0.2 molar ratio, or DMPC:DMPG:CHOL at 1.8:0.2:1.5 molar ratio, or DMPC:DCP:CHOL at 7:1:2 molar ratio) containing entrapped antigen, the vesicles were prepared by pressure extrusion (at room temperature for archaeobacterial and at 35° C. for DMPC-containing lipids, using 400 nm pore size filters). About 20 mg dry weight of the dried lipid(s) was hydrated in 1 ml PBS containing either BSA (5 mg/ml), Cholera B toxin subunit (0.5 mg/ml), or O-chain polysaccharide (18 mg/ml). To entrap BSA in DSPC:DCP:CHOL (4:1:5, molar ratio), in DSPC:DCP:CHOL:CoQ10 (3:1:4:2, molar ratio), and M. mazei TPL:CoQ10 (8:2, molar ratio), the vesicles were prepared by the REV (at 55° C.)-sonication method described above. The BSA was encapsulated in these vesicles by the DRV method as described by New (13). The antigen that was not entrapped/associated with the vesicles was removed by centrifugation and washing as described for peroxidase-vesicles.
The immunization strategies were similar for each of the different experiments. For each experiment, details of the amounts and types of antigen/adjuvant injected, and the time intervals between injections is described in the appropriate figure legends. Freund's adjuvant (FA) encompasses Freund's complete adjuvant (CFA) and Freund's incomplete adjuvant (IFA) used at 62.5% strength in PBS. For each antigen/adjuvant preparation three mice were injected (unless indicated otherwise) i.p., i.m., or s.c. with antigens encapsulated in archaeosomes or liposomes (diluted in sterile PBS, pH 7.1), antigens emulsified in CFA, or with antigens diluted in PBS alone (final volume, 0.2 ml/mouse). For the second immunization, mice were injected with antigens encapsulated in archaeosomes or liposomes, or emulsified in IFA, or diluted in PBS. For experiments where a third or fourth injection was required, antigens were injected either encapsulated in the respective vesicle type or as bare antigen diluted in PBS. Mice were 6-8 weeks of age at the time of the first immunization.
Mice were bled from the tail veins usually four days after each injection. The blood was allowed to dot, and cells removed from the serum by centrifuging in serum separator tubes.
The humoral response was measured by the indirect enzyme-linked immunosorbent assay (ELISA) using a variety of solid-phase adsorbed antigens. BSA, Cholera B toxin subunit, or E. coli 0:157:H7 lipopolysaccharide was diluted in distilled water (15 μg/ml final concentration) and 100 μl/well was dried (overnight incubation at 37° C.) to coat the ELISA microplate wells. All indirect ELISA assays were performed using standard methods. Dilutions of antibody-containing sera were used as the first antibody and a 1/1500 dilution of HRP-conjugated goat anti-mouse IgG+IgM as the detection antibody.
The isotypes of anti-BSA antibodies raised in mouse sera were assayed by an ELISA method. Wells were coated with BSA (as above). Dilutions of each serum were titred with peroxidase-coupled sheep anti-mouse IgG1, IgG2a, IgG2b, IgG3, and IgM. All ELISA data are reported as the means ± sample standard deviations.

## Bare BSA: bovine serum albumin antigen alone in PBS, without adjuvant or vesicle
Day 25
  Antibody titres (A410 nm): 0.064 ± 0.001 A410 nm
Day 35
  Antibody titres (A410 nm): 0.082 ± 0.007 A410 nm
Day 55
  Antibody titres (A410 nm): 0.075 ± 0.008 A410 nm
i.m., 12.5 μg antigen alone in PBS, sera diluted 400-fold
  Antibody titre (A410 nm): 0.063 ± 0.003 A410 nm
i.p., 12.5 μg BSA, days 0 and 14, blood day 20, IgG + IgM, archaeobacterial lipids none
  Immune response (Relative %): 6.9 ± 0.3 Relative %
i.p., 25 μg antigen alone in PBS, no carrier/adjuvant, sera diluted 400 fold
  Antibody titre (A410 nm): 0.137 ± 0.002 A410 nm
i.p., antigen alone in PBS, undiluted sera
  Anti-BSA antibody Concentration: 10.5 µg/mL
